Test results reported in paper PMC4549712, “Inhibition of human GLUT1 and GLUT5 by plant carbohydrate products; insights into transport specificity” (Scientific Reports, 2015).
Positions count from the first letter of the chain named. Several values for one entry are separate records, joined by “and”; a condition that tells them apart may be missing. Equal entries are not always repeated. Entries after “also recorded” stand apart in the source; their conditions may differ.

Columns and labels:
human GLUT1 = biological target: T1, human GLUT1 (Homo sapiens, UniProt P11166); assay: entrance counter-flow transport assay, GLUT1-mediated glucose transport in proteoliposomes; format: biochemical
T1 construct: Full length DNA was subcloned into pFastBac1 (Life Technologies) vector with a N-terminal hexahistidine tag; hexahistidine (thrombin-cleavable) (N, cleaved yes); made in house; host or cells: Sf21 insect cells (baculovirus, pFastBac1)
T1 sequence (P11166 1-492): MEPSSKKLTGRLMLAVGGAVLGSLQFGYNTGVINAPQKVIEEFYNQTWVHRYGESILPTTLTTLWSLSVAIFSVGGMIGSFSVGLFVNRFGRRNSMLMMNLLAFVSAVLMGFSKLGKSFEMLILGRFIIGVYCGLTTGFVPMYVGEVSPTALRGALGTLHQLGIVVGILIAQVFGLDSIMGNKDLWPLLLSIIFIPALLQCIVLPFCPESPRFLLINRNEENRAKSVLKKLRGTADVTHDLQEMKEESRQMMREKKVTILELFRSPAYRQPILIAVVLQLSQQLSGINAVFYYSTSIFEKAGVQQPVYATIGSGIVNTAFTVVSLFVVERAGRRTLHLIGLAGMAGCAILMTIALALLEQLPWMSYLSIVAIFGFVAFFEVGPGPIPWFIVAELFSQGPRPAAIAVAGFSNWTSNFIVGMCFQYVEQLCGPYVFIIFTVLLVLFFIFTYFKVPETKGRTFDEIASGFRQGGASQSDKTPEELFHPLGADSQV
Experimental: Human GLUT1 and GLUT5 were expressed recombinantly in insect cell culture. The purified proteins were reconstituted into proteoliposomes. To measure the inhibition of GLUT1 or GLUT5 transport activity we used entrance counter-flow transport assay. In GLUT1 and GLUT5 proteoliposomes, substrate transport reached steady state after one minute incubation at room temperature.
Proteoliposomes were generated according to the protocol from[30] with minor modifications. Liposomes were produced from a 95/5% (w/w) mix of soy phosphatidylcholine and cholesterol (Avanti Polar Lipids). Briefly, hexane-washed and vacuum-dried lipids were resuspended to 20 mg/ml in 100 mM KPi (pH 7.5), and then subjected to 11 freeze-and-thaw cycles in liquid nitrogen and room temperature water. The lipid mixture was extruded through a 0.1 μm polycarbonate filter. Prepared liposomes were destabilized with 4 mM Triton X-100 and mixed with purified protein in a 100:1 (w/w) ratio in 100 mM KPi (pH 7.5) 20% (v/v) glycerol, 200 mM (glucose or fructose). Detergent was removed by several additions of SM2 BioBeads (BioRad) and incubated overnight at 4 °C. After filtering out the BioBeads, proteoliposomes were diluted with 100 mM KPi (pH 7.5) 200 mM (glucose or fructose), and then collected by ultracentrifugation, at 200,000 × g and 4 °C, for 1 hour. The proteoliposomes pellet was resuspended in the above buffer so that O.D.600nm was ~30.
To measure hexose transport, we utilized entrance counter-flow assay. Transport was performed in a volume of 100 μL of 100 mM KPi (pH 7.5) buffer containing radioactive ^14C-hexose (4 μM fructose or 5 μM glucose) with inhibitors added before initiation of transport. Radioactive substrate uptake in GLUT1 and GLUT5 (wild-type or mutant) proteoliposomes was constant between 1 and 2 mins. The reaction was started by the addition of 3 μL concentrated proteoliposomes to the above solution and incubated at room temperature; the transport was stopped after one minute by addition of ice-chilled quench buffer [100 mM KPi (pH 5.5) and 100 mM LiCl]. The solution was filtered through a 0.4 μm pore size cellulose nitrate membrane filter (Whatman), and the filter was washed three times with quench buffer. The membrane filter was placed into a vial filled with BioSafe II scintillation liquid (Research Products International Corp.), and radioactivity was quantified with LS 6500 scintillation counter (Beckman). […] The transport assays were unaffected by 5% DMSO. Data is presented as relative activity normalized to radioactivity of no inhibitor added as 100% and empty proteoliposomes as 0%. Kinetic parameters were fitted by nonlinear algorithm plots using Prism (GraphPad Software).

GLUT1W388A = biological target: T2, GLUT1W388A (Homo sapiens, UniProt P11166, W388A); assay: entrance counter-flow transport assay, glucose transport by GLUT1W388A proteoliposomes; format: biochemical; conditions: any tested concentration, up to 20 mM
T2 construct: Full length DNA was subcloned into pFastBac1 (Life Technologies) vector with a N-terminal hexahistidine tag; hexahistidine (thrombin-cleavable) (N, cleaved yes); made in house; host or cells: Sf21 insect cells (baculovirus, pFastBac1)
T2 sequence (P11166 1-492 W388A): T1 sequence (P11166 1-492) with W388A
Experimental: We expressed and purified GLUT1W388A and GLUT5A396W. Purified mutant proteins were reconstituted into proteoliposomes and activity was determined by entrance counter-flow transport assay.
cDNAs of GLUT1 and GLUT5 were purchased from Open Biosystems (GE Healthcare). Full length DNA was subcloned into pFastBac1 (Life Technologies) vector with a N-terminal hexahistidine tag. Bacmids were generated in DH10Bac E. coli cells (Life Technologies). Baculoviruses were produced using Cellfectin II Reagent and amplified in Sf21 insect cells (Life Technologies). Cells were maintained at 26 °C, and P1 (10^6 pfu/mL) was collected from infected cells after 72 hours. Sf21 cells were propagated in HyClone SFX-Insect media (GE Healthcare), supplemented with 5% fetal bovine serum (Biowest), antibiotics (100 units/mL Penicillin G and 100 μg/mL streptomycin sulfate) and amphotericin B (2.5 μg/mL). For recombinant protein expression, Sf21 cells in suspension culture at 2 × 10^6 cells/ml were infected with P3 viral stock (10^8 pfu/mL), at an MOI of 1.0 pfu/cell. Four days after viral infection, cells from 2 L culture were collected by centrifugation at 2,000 × g and 25 °C. […]

C=C1C[C@@]23CC[C@H]4[C@@](C)(CCC[C@@]4(C)C(=O)O[C@@H]4O[C@H](CO)[C@@H](O)[C@H](O)[C@H]4O)[C@@H]2CC[C@]1(O[C@@H]1O[C@H](CO)[C@@H](O)[C@H](O)[C@H]1O)C3 [Rub, Rubusoside]
inhibition of GLUT1 glucose transport activity (human GLUT1; 20 mM): reducing activity to background levels
IC50 (human GLUT1; entrance counter-flow): 4.6 mM and ~5 mM
inhibition of glucose transport by GLUT1W388A (GLUT1W388A): not inhibited; also recorded: did not inhibit
